Columns and labels:
[1] = target: T1, human AR (androgen receptor) (Homo sapiens, UniProt P10275); assay: Steroid hormone nuclear receptor binding assay, AR binding
T1 construct: expressed in transfected cells; host or cells: 293 cells (293-AR lysate)
T1 sequence (P10275 1-920): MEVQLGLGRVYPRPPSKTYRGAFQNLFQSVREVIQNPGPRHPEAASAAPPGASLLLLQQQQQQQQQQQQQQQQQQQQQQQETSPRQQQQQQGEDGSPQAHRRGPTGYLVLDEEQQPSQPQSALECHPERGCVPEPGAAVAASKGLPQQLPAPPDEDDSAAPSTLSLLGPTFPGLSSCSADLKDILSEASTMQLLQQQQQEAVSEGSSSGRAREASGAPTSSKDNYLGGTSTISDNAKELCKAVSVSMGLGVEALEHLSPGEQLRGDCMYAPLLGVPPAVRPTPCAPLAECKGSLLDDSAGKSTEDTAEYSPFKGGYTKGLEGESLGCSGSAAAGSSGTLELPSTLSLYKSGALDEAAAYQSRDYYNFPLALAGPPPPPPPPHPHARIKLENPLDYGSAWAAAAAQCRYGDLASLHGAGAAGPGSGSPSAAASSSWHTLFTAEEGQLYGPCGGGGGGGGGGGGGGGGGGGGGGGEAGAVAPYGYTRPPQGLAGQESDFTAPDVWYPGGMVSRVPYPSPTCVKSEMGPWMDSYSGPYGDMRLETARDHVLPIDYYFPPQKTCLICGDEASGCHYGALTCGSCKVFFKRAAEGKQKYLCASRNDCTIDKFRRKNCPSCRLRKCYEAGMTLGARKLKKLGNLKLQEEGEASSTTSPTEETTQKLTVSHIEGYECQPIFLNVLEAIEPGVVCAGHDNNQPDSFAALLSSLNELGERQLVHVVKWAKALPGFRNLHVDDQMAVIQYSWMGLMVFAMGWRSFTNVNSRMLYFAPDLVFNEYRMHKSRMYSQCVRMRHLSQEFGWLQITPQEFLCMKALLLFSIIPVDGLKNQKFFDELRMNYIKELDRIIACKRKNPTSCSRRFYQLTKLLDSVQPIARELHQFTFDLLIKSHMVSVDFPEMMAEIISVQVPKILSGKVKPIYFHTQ
In short: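 Competition binding with lysates of 293 cells overexpressing human AR, [3H]-methyltrienolone tracer, compounds from about 0.01 nM to 10 μM, overnight at 4 °C; non-specific binding set with 500 nM methyltrienolone. Bound tracer counted by scintillation after charcoal-dextran separation; IC50 converted to Ki by Cheng-Prusoff using Kd from saturation binding.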

[2] = target: T2, human androgen receptor (AR) (Homo sapiens, UniProt P10275); assay: C2C12 AR/ARE reporter assay; format: cell-based; settings: for Emax: C2C12, read-out: C2C12 % Efficacy
T2 construct: expressed in transfected cells; host or cells: mouse myoblast C2C12 cells, transiently co-transfected
T2 sequence (P10275 1-920): T1 sequence (P10275 1-920)
In short: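 Mouse C2C12 myoblasts co-transfected with AR/ARE reporter were plated in charcoal-stripped serum and treated for 48 h with compound from about 0.01 nM to 10 μM. Luciferase activity gave EC50 by 4-parameter logistic fit. Efficacy is expressed as % of maximal stimulation by 10 nM methyltrienolone.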

Compound | Ki [1] [nM] | melting point [°C] | EC50 [2] [nM] | Emax [2] [%]
N#Cc1ccc2c(c1)c1c(n2Cc2cccc(F)n2)CC[C@@H](NC(=O)C2CC2)C1 [Example 195, Cyclopropanecarboxylic acid[6-cyano-9-(6-fluoro-pyridin-2-ylmethyl)-2,3,4,9-tetrahydro-1H-carbazol-3-yl]-amide] | 4.3 | 243 to 245 | 2.7 | 96.5
CO/N=C/c1ccc2c(c1)c1c(n2Cc2ccccn2)CCC(NC(=O)C2CC2)C1 (centres unmarked) [Example 207, Cyclopropanecarboxylic acid[6-(1-methoxyimino-methyl)-9-pyridin-2-ylmethyl-2,3,4,9-tetrahydro-1H-carbazol-3-yl]-amide] | 41.6 | 88 to 92 | 11.6 | 93.3
COc1ccc(Cn2c3c(c4cc(F)ccc42)CC(NC(=O)C(C)C)CC3)cc1 (centres unmarked) [Example 15] | 275 | 178 to 181 | – | 15.3
CC(C)C(=O)NC1CCc2c(c3cc(F)ccc3n2Cc2ccccc2Cl)C1 (centres unmarked) [Example 5] | 24.6 | 155 to 157 | – | 80.3

— patent publication US7935722B2 (Eli Lilly and Company, priority 2005, dated 2011)
